Data taken from patent publication US10799501B2, “Combination of an inhibitor of PARP with an inhibitor of GSK-3 or DOT1L” (King's College London, priority 2015, dated 2020).

Legend:
Type in all cases: cell-based, mouse
[1] = test system: MLL-AF9 Hoxa9−/− transformed cells; experiment: In vitro PARPi treatment of MLL-AF9 transformed cells from Hoxa9−/− background
Protocol: (§1) Transduction using concentrated viral supernatant expressing the oncogene of interest was carried out by centrifugation (spinoculation) at 800 g at 32° C. for 2 hours in the presence of 5 μg ml^-1 polybrene (Sigma-Aldrich). Cells were subsequently plated in 1% methylcellulose medium ([…]; Stem Cell Technologies) containing 20 ngml^-1 SCF, 10 ngml^-1 IL-3, 10 ngml^-1 IL-6 and 10 ngml^-1 granulocyte macrophage colony-stimulating factor (GM-CSF) and appropriate selection antibiotic. Colonies were counted after 7 days of culture and replated every 6-7 days at 5×103-1.5×10^4 cell density. Re-plating was performed weekly to generate primary cell lines for further analysis. After the third or fourth round of plating, cells were cultured in R20/20 medium (RPMI 1640, 20% FCS, 20% WEHI-conditioned medium, 2 mM L-glutamine, 100 U/ml penicillin, and 100 μg/ml streptomycin) supplemented with 20 ngml^-1 stem cell factor (SCF), 10 ngml^-1 interleukin (IL)-3, and 10 ngml^-1 IL-6 to establish cell lines. All recombinant murine cytokines were from PeprotechEC. […] Colonies were scored 6-7 days after plating. […] Cells were counted in at least 5 fields for each slide, for a total of over 100 cells. The percentage of senescent cells was calculated by the percentage of the number of blue cell in the field.

[2] = test system: E2A-PBX transformed cells; experiment: In vitro drug treatment of primary murine hematopoietic cells transformed by E2A-PBX (RTTA)
Protocol: as §1, with “plating. For other in vitro studies, mouse leukemic cells and primary AML cell lines were subjected to continuously Olaparib (1 μM) or LiCl (8 mM) treatment in liquid culture for whole duration as indicated in the figures or figure legends. For human leukemic cell lines, experiments were performed as described above with 5 μM Olaparib.” for “plating.”, “field. […] Cells were counted in at least 5 fields for each slide, for a total of over 100 cells per condition. […] Cells were counted in at least 5 fields for each slide, for a total of over 100 cells per condition. […] Cells were then washed in PBS and the differentiated cells were indicated by the deposition of dark blue insoluble formazan (NBT positive cells) and the percentage of differentiated cells were counted under microscopy. At least 200 cells were counted in most of the cases.” for “field.”

[3] = test system: AML1-ETO transformed cells; experiment: In vitro drug treatment of primary murine hematopoietic cells transformed by AML1-ETO (RTTA)
Protocol: Transduction using concentrated viral supernatant expressing the oncogene of interest was carried out by centrifugation (spinoculation) at 800 g at 32° C. for 2 hours in the presence of 5 μg ml^-1 polybrene (Sigma-Aldrich). Cells were subsequently plated in 1% methylcellulose medium ([…]; Stem Cell Technologies) containing 20 ngml^-1 SCF, 10 ngml^-1 IL-3, 10 ngml^-1 IL-6 and 10 ngml^-1 granulocyte macrophage colony-stimulating factor (GM-CSF) and appropriate selection antibiotic. Colonies were counted after 7 days of culture and replated every 6-7 days at 5×103-1.5×10^4 cell density. Re-plating was performed weekly to generate primary cell lines for further analysis. After the third or fourth round of plating, cells were cultured in R20/20 medium (RPMI 1640, 20% FCS, 20% WEHI-conditioned medium, 2 mM L-glutamine, 100 U/ml penicillin, and 100 μg/ml streptomycin) supplemented with 20 ngml^-1 stem cell factor (SCF), 10 ngml^-1 interleukin (IL)-3, and 10 ngml^-1 IL-6 to establish cell lines. All recombinant murine cytokines were from PeprotechEC. […] Colonies were scored 6-7 days after plating. For other in vitro studies, mouse leukemic cells and primary AML cell lines were subjected to continuously Olaparib (1 μM) or LiCl (8 mM) treatment in liquid culture for whole duration as indicated in the figures or figure legends. For human leukemic cell lines, experiments were performed as described above with 5 μM Olaparib. Cells were cytospun onto a glass slide at 400 g for 5 minutes and then fixed for 10 minutes with 2% formaldehyde/0.2% glutaraldehyde (Sigma Aldrich). Cells were then washed with PBS, and then incubated at 37° C. for at least 2 hours with a staining solution (30 mM Citric Acid/Phosphate buffer, 5 mM K4Fe(CN)6, 5 mM K3Fe(CN)6, 150 mM NaCl, 2 mM MgCl2, 1 mg/ml X-Gal) (All reagents from Sigma-Aldrich)62. Cells were counted in at least 5 fields for each slide, for a total of over 100 cells. The percentage of senescent cells was calculated by the percentage of the number of blue cell in the field. Cells were cytospun onto a glass slide at 400 g for 5 minutes and then fixed for 30 minutes in 4% PFA and permeabilized and blocked in 0.8% Tx-100, 10% FBS/1% BSA (Sigma-Aldrich) in PBS for 15 min at room temperature. Mouse anti mouse γH2AX ([…]) (Upstate clone JBW301#05-636) and rabbit anti mouse RAD51 (Santa Cruz Biotecnology […]# sc-8349) were diluted in TBS containing 10% FBS/1% BSA and incubated overnight at 4C. […] Slides were then washed five times at 10 min each with PBS. Slides were briefly washed in water and air-dried prior to mounting with Mowiol-DABCO and a coverslip. Cells were counted in at least 5 fields for each slide, for a total of over 100 cells per condition. 1×10^5 cells were cytospun for 5 min at 300 g onto glass slides. Slides were then stained with May-Grunwald solution (Sigma-Aldrich) for 3 min at room temperature. After washing in water, they were incubated for 20 min in Giemsa solution (Sigma-Aldrich) (1:20 in water). Slides were washed again in water before being mounted with Mowiol. Cells were counted in at least 5 fields for each slide, for a total of over 100 cells per condition. NBT reduction assay were performed to determine myeloid differentiation. […] Cells were then washed in PBS and the differentiated cells were indicated by the deposition of dark blue insoluble formazan (NBT positive cells) and the percentage of differentiated cells were counted under microscopy. At least 200 cells were counted in most of the cases.

O=C(c1cc(Cc2n[nH]c(=O)c3ccccc23)ccc1F)N1CCN(C(=O)C2CC2)CC1 [Olaparib, 4-[(3-[(4-cyclopropylcarbonyl)piperazin-4-yl]carbonyl)-4-fluorophenyl]methyl(2H)-phthalazin-1-one]
senescence (β-galactosidase staining) ([1]; 48 hrs PARPi treatment): induction of senescence | colony forming ability and differentiation ([1]; seven days in methylcellulose with PARPi): significant suppression of colony forming ability and differentiation | impact on colony forming ability ([2]; 1 uM Olaparib, methylcellulose 7 days): little impact | differentiation, G1 arrest, senescence, apoptosis effects ([2]; PARPi treatment): none of these effects were observed | Rad51 recruitment to DNA damage sites (RAD51 foci) ([2]; PARPi treatment for 6 hours): able to form RAD51 foci | suppression of colony forming ability ([3]; 1 uM Olaparib, methylcellulose 7 days, p<0.001): about 90% | senescence (β-galactosidase staining) ([3]; PARPi 24 hrs and 48 hrs): underwent significant senescence | Rad51 recruitment to DNA damage sites (RAD51 foci) ([3]; PARPi treatment for 6 hours): no significant Rad51 recruitment | percentage of differentiation (morphology and NBT reduction) ([3]; time course PARPi treatment): significantly increased the percentage of differentiation | cells with γH2AX and Rad51 foci ratio greater than 2 ([3]; upon PARPi treatment): around 80%
